Laboratory results: patent US20250195513A1, “DEGRADATION OF IRAK4 BY CONJUGATION OF IRAK4 INHIBITORS WITH E3 LIGASE LIGAND AND METHODS OF USE” (BeiGene, Ltd., priority 2022, published 2025)

How the values were obtained:
Type in all cases: cell-based
[1] = system: TNF-α production in THP-1 cells; assay: TNF-α Production Assay in THP-1 Cells (LPS stimulated); details: Homo sapiens, THP-1, 24 h; for Emax: maximum inhibition, read-out: TNF-α (THP-1) 24 h IMax
Experimental: THP-1 cells maintained in RPMI 1640 medium (Thermo Scientific) supplemented with 10% FBS (Thermo Scientific), 100 units/mL penicillin and 0.1 mg/mL streptomycin (Thermo Scientific) were seeded into 96-well plates at the density of 0.2 million cells per well and then treated with compounds for 24 h. Lipopolysaccharide was subsequently added at the final concentration of 1 μg/mL for 24 h. Culture supernatant was collected for measurement of TNF-α concentration by a TR-FRET-based method (Degorce, François, et al. Current chemical genomics. 2009, 3: 22) as described by the manufacturer manual (Cisbio). FRET signals were measured using a PHERAstar FSX reader (BMG Labtech).

IRAK4 [2] = target: T1, IRAK4 (Homo sapiens, UniProt Q9NWZ3); assay: IRAK4 Degradation Assay with Human Serum (Karpas299, HTRF/TR-FRET); details: Karpas-299 in human serum, 24 hrs treatment; for DC50: read-out: IRAK4 degradtion with human serum assay DC50; for Dmax: read-out: IRAK4 degradtion with human serum assay Dmax (%)
T1 construct: endogenous in cells; host or cells: Karpas299
T1 sequence (Q9NWZ3 1-460): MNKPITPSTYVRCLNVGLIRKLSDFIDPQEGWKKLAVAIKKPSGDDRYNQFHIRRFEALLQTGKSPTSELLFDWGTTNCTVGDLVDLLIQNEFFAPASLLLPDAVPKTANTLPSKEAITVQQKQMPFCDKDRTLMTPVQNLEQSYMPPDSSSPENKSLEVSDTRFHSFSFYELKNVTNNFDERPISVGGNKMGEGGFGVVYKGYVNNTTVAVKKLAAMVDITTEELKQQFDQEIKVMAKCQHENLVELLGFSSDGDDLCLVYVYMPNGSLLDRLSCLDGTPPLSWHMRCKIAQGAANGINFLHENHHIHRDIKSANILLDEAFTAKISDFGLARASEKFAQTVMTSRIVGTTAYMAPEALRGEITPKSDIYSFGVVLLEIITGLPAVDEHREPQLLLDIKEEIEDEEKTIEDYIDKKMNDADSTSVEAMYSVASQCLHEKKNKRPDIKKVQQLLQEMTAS
Method in brief: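 Karpas299 cells in human AB serum (0.2 million/well) treated with serial compound dilutions for 24 h. After lysis, IRAK4 quantified by HTRF (overnight antibody incubation at room temperature, 665/620 nm read). Degradation percentage fitted to four-parameter curve to give DC50.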

IRAK4 [3] = target: T1, IRAK4; assay: IRAK4 Degradation Assay (Karpas299, HTRF/TR-FRET); details: Karpas-299 cells; for Dmax: maximum percentage of degradation
Method in brief: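 Karpas299 cells at 0.2 million per well were exposed to serially diluted compounds for 24 h or 5 h, then lysed. IRAK4 remaining in lysates was quantified by HTRF (665/620 nm) after overnight antibody incubation at room temperature. Percent degradation was fitted to a four-parameter curve to give IC50 (DC50).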

[4] = 5 h treatment, read-out: IRAK4 in Karpas-299 (5 h) Dmax (%)
[5] = 5 h treatment, read-out: IRAK4 in Karpas-299 (5 h) DC50
[6] = 24 h treatment, read-out: IRAK4 in Karpas-299 (24 h) Dmax (%)
[7] = 24 h treatment, read-out: IRAK4 in Karpas-299 (24 h) DC50

| Structure (SMILES) | IC50 [1] [nM] | Emax [1] [%] | DC50 (IRAK4 [2]) [nM] | Dmax (IRAK4 [2]) [%] | Dmax (IRAK4 [3]; [4]) [%] | DC50 (IRAK4 [3]; [5]) [nM] | Dmax (IRAK4 [3]; [6]) [%] | DC50 (IRAK4 [3]; [7]) [nM] |
| --- | --- | --- | --- | --- | --- | --- | --- | --- |
| CC(C)(O)c1cc2nn([C@H]3CC[C@H](N4CCN(C5CCN(c6ccc(C7CCC(=O)NC7=O)cc6)CC5)CC4)CC3)cc2cc1NC(=O)c1ccc2cc(C#N)cnn12 (some centres unmarked) [Example 195, 3-cyano-N-(2-((1r,4r)-4-(4-(1-(4-(2,6-dioxopiperidin-3-yl)phenyl)piperidin-4-yl)piperazin-1-yl)cyclohexyl)-6-(2-hydroxypropan-2-yl)-2H-indazol-5-yl)pyrrolo[1,2-b]pyridazine-7-carboxamide] | 118 | 72 | 10 | 98 | 97 | 13 | 98 | 2.8 |
| CC(C)(O)c1cc2nn([C@H]3CC[C@H](N4CCN(CCNc5cc(F)c([C@H]6CCC(=O)NC6=O)c(F)c5)CC4)CC3)cc2cc1NC(=O)c1ccc2cc(C#N)cnn12 [Example 194, 3-cyano-N-(2-((1R,4r)-4-(4-(2-((4-((R)-2,6-dioxopiperidin-3-yl)-3,5-difluorophenyl)amino)ethyl)piperazin-1-yl)cyclohexyl)-6-(2-hydroxypropan-2-yl)-2H-indazol-5-yl)pyrrolo[1,2-b]pyridazine-7-carboxamide] | 30 | 53 | 6.2 | 96 | 93 | 1.6 | 98 | 1.1 |
| COC[C@@H]1CN([C@H]2CC[C@H](n3cc4cc(NC(=O)c5ccc6cc(C#N)cnn56)c(C(C)(C)O)cc4n3)CC2)CCN1C(=O)C1CN(c2cc(F)c([C@H]3CCC(=O)NC3=O)c(F)c2)C1 [Example 186, 3-cyano-N-(2-((1S,4r)-4-((S)-4-(1-(4-((R)-2,6-dioxopiperidin-3-yl)-3,5-difluorophenyl)azetidine-3-carbonyl)-3-(methoxymethyl)piperazin-1-yl)cyclohexyl)-6-(2-hydroxypropan-2-yl)-2H-indazol-5-yl)pyrrolo[1,2-b]pyridazine-7-carboxamide] | 29 | 89 | 9.2 | 101 |  |  | 99 | 0.9 |
| CC(C)(O)c1cc2nn(C34CC(N5CCN(CC6CN(c7cc(F)c(N8CCC(=O)NC8=O)c(F)c7)C6)CC5)(C3)C4)cc2cc1NC(=O)c1ccc2cc(C#N)cnn12 [Example 354, 3-cyano-N-(2-(3-(4-((1-(4-(2,4-dioxotetrahydropyrimidin-1(2H)-yl)-3,5-difluorophenyl)azetidin-3-yl)methyl)piperazin-1-yl)bicyclo[1.1.1]pentan-1-yl)-6-(2-hydroxypropan-2-yl)-2H-indazol-5-yl)pyrrolo[1,2-b]pyridazine-7-carboxamide] | 44 | 96 | 10 | 93 |  |  | 98 | 2.4 |
| C[C@@H]1CN(C2CCN(c3cc(F)c([C@H]4CCC(=O)NC4=O)c(F)c3)CC2)CCN1[C@H]1CC[C@H](n2cc3cc(NC(=O)c4ccc5cc(C#N)cnn45)c(C(C)(C)O)cc3n2)CC1 [Example 301, 3-cyano-N-(2-((1R,4r)-4-((R)-4-(1-(4-((R)-2,6-dioxopiperidin-3-yl)-3,5-difluorophenyl)piperidin-4-yl)-2-methylpiperazin-1-yl)cyclohexyl)-6-(2-hydroxypropan-2-yl)-2H-indazol-5-yl)pyrrolo[1,2-b]pyridazine-7-carboxamide] | 42 | 96 | 3.2 | 102 |  |  | 100 | 0.7 |
| C[C@@H]1CN(C(=O)C2CN(c3cc(F)c([C@H]4CCC(=O)NC4=O)c(F)c3)C2)CCN1[C@H]1CC[C@H](n2cc3cc(NC(=O)c4ccc5cc(C#N)cnn45)c(C(C)(C)O)cc3n2)CC1 [Example 298, 3-cyano-N-(2-((1R,4r)-4-((R)-4-(1-(4-((R)-2,6-dioxopiperidin-3-yl)-3,5-difluorophenyl)azetidine-3-carbonyl)-2-methylpiperazin-1-yl)cyclohexyl)-6-(2-hydroxypropan-2-yl)-2H-indazol-5-yl)pyrrolo[1,2-b]pyridazine-7-carboxamide] | 13 | 93 | 9.8 | 103 |  |  | 99 | 0.3 |
| COc1cc(N2CC(C(=O)N3CCN([C@H]4CC[C@H](n5cc6cc(NC(=O)c7ccc8cc(C#N)cnn78)c7c(c6n5)OCO7)CC4)CC3)C2)ccc1[C@H]1CCC(=O)NC1=O [Example 356] | 12 | 90 | 14 | 102 |  |  | 98 | 1.3 |
| COC[C@@H]1CN([C@H]2CC[C@H](n3cc4cc(NC(=O)c5ccc6cc(C#N)cnn56)c(C(C)(C)O)cc4n3)CC2)CCN1C1CCN(c2cc(F)c([C@H]3CCC(=O)NC3=O)c(F)c2)CC1 [Example 319] | 39 | 90 | 6.7 | 98 | 95 | 1.2 | 98 | 2 |
| COc1cc(N2CC(C(=O)N3CCN([C@H]4CC[C@H](n5cc6cc(NC(=O)c7ccc8cc(C#N)cnn78)c(C(C)(C)O)cc6n5)CC4)CC3)C2)ccc1N1CCC(=O)NC1=O [Example 269] | 24 | 89 | 11 | 94 |  |  | 97 | 1.8 |
| CC(C)(O)c1cc2nn([C@H]3C[C@H](N4CCN(C(=O)C5CN(c6cc(F)c([C@H]7CCC(=O)NC7=O)c(F)c6)C5)CC4)C3)cc2cc1NC(=O)c1ccc2cc(C#N)cnn12 [Example 201, 3-cyano-N-(2-((1R,3r)-3-(4-(1-(4-((R)-2,6-dioxopiperidin-3-yl)-3,5-difluorophenyl)azetidine-3-carbonyl)piperazin-1-yl)cyclobutyl)-6-(2-hydroxypropan-2-yl)-2H-indazol-5-yl)pyrrolo[1,2-b]pyridazine-7-carboxamide] | 6.7 | 80 | 11 | 99 |  |  | 96 | 0.8 |
| COC[C@@H]1CN([C@H]2CC[C@H](n3cc4cc(NC(=O)c5ccc6cc(C#N)cnn56)c(C(C)(C)O)cc4n3)CC2)CCN1CC1CN(c2cc(F)c([C@H]3CCC(=O)NC3=O)c(F)c2)C1 [Example 358, 3-cyano-N-(2-((1S,4r)-4-((S)-4-((1-(4-((R)-2,6-dioxopiperidin-3-yl)-3,5-difluorophenyl)azetidin-3-yl)methyl)-3-(methoxymethyl)piperazin-1-yl)cyclohexyl)-6-(2-hydroxypropan-2-yl)-2H-indazol-5-yl)pyrrolo[1,2-b]pyridazine-7-carboxamide] | 17 | 96 | 5.4 | 96 | 95 | 1.9 | 99 | 0.5 |
| C[C@H]1CN(C(=O)C2CN(c3cc(F)c([C@H]4CCC(=O)NC4=O)c(F)c3)C2)CCN1[C@H]1CC[C@H](n2cc3cc(NC(=O)c4ccc5cc(C#N)cnn45)c(C(C)(C)O)cc3n2)CC1 [Example 304, 3-cyano-N-(2-((1S,4r)-4-((S)-4-(1-(4-((R)-2,6-dioxopiperidin-3-yl)-3,5-difluorophenyl)azetidine-3-carbonyl)-2-methylpiperazin-1-yl)cyclohexyl)-6-(2-hydroxypropan-2-yl)-2H-indazol-5-yl)pyrrolo[1,2-b]pyridazine-7-carboxamide] | 31 | 88 | 65 | 97 |  |  | 96 | 0.5 |
